The assay concerns the target T1, CIC-1 ion channel (Rattus norvegicus, UniProt P35524).
T1 construct: CIC-1 channels in native tissue of rat skeletal muscle fibres; from tissue; host or cells: whole soleus muscle of 12-14 week old Wistar rats
T1 sequence (P35524 1-994): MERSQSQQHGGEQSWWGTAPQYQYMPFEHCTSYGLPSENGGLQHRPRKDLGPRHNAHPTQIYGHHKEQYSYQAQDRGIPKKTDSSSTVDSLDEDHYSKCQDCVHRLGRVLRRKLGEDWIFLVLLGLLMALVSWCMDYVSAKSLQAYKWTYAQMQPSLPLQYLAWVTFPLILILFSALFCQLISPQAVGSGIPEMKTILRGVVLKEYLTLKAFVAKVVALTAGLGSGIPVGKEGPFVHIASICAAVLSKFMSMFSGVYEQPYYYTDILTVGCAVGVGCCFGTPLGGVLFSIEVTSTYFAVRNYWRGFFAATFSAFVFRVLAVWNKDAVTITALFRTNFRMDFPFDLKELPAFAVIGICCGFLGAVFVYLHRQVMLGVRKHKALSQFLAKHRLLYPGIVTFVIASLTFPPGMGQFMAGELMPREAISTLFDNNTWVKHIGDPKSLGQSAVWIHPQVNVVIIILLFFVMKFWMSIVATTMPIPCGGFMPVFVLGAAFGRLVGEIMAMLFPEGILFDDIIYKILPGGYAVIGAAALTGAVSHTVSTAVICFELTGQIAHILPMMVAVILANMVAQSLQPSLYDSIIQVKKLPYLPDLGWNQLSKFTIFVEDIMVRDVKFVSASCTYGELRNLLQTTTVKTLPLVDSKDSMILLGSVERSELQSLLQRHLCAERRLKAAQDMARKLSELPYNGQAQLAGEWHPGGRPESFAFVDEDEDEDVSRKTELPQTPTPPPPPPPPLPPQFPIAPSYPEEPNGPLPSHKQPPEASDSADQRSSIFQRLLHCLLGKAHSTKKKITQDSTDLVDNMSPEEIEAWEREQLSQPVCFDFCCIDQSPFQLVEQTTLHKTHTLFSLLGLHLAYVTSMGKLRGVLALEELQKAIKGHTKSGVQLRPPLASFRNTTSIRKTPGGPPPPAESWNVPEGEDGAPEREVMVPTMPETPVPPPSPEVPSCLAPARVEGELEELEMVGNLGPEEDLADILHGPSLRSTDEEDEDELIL
The assay is described as follows: Electrophysiological measurement (Gm, three micro-electrodes) of compound inhibition of CIC-1 in rat soleus muscle fibres. Type of assay: cell-based. Particulars: approx. 30° C., four increasing compound concentrations, read-out: EC50 (inhibition of CIC-1 ion channel, reduction of Gm).

In general, EC50 refers to the midpoint of the concentration-response curve.

Structures are written as SMILES.

Take `C[C@H](Oc1ccc(Cl)cc1)C(=O)NOC1CCC1` [Compound C-80, (2S)-2-(4-chlorophenoxy)-N-cyclobutoxypropanamide]: the EC50 was 2.6 µM. For the compound `C[C@H](Oc1ccc(Br)cc1F)c1nn[nH]n1` [Compound E-8, 5-[(1S)-1-(4-bromo-2-fluorophenoxy)ethyl]-2H-1,2,3,4-tetrazole], the EC50 came to 6.6 µM.

The record behind these values is patent publication US20220274938A1, “5-[(1S)-1-(4-BROMOPHENOXY)ETHYL]-2H-TETRAZOLE DERIVATIVES AND RELATED COMPOUNDS AS CLC-1 ION CHANNEL INHIBITORS FOR TREATING NEUROMUSCULAR DISORDERS” (NMD PHARMA A/S, priority 2019, published 2022).
